Reference: PubChem BioAssay AID248 (DTP/NCI, 2004)
Several values for one entry are separate records, joined by “and”; a condition that tells them apart may be missing. Equal entries are not always repeated. Toxic doses and inconclusive results are not listed. Rule as the data show it: active = T/C of 150% or more; inactive = T/C below 125%.

Test system: L1210 leukemia ip in BDF1 mice, survival T/C
Experiment: NCI In Vivo Anticancer Drug Screen. Data for tumor model L1210 Leukemia (intraperitoneal) in B6D2F1 (BDF1) mice
Details: endpoint: mean survival time, higher = longer survival
Summary of the method: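 Each compound was tested against a transplantable tumor grown in mice. The endpoint was survival, with treated animals benchmarked against vehicle controls as a simple ratio.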

[1] = dose: 100.0 mg/kg/injection, schedule: Q01DX009 (ip), vehicle: saline
[2] = dose: 100.0 mg/kg/injection, schedule: Q04DX002 (ip), vehicle: saline
[3] = dose: 200.0 mg/kg/injection, schedule: Q01DX009 (ip), vehicle: saline
[4] = dose: 200.0 mg/kg/injection, schedule: Q04DX002 (ip), vehicle: saline
[5] = dose: 400.0 mg/kg/injection, schedule: Q04DX002 (ip), vehicle: saline
[6] = dose: 100.0 mg/kg/injection, schedule: Q01DX009 (ip), vehicle: Klucel (hydroxypropylcellulose) (HPC)
[7] = dose: 200.0 mg/kg/injection, schedule: Q01DX009 (ip), vehicle: Klucel (hydroxypropylcellulose) (HPC)
[8] = dose: 400.0 mg/kg/injection, schedule: Q01DX009 (ip), vehicle: Klucel (hydroxypropylcellulose) (HPC)
[9] = dose: 100.0 mg/kg/injection, schedule: Q01DX009 (ip), vehicle: saline with Tween-80
[10] = dose: 200.0 mg/kg/injection, schedule: Q01DX009 (ip), vehicle: saline with Tween-80
[11] = dose: 100.0 mg/kg/injection, schedule: Q04DX003 (ip), vehicle: Klucel (hydroxypropylcellulose) (HPC)
[12] = dose: 200.0 mg/kg/injection, schedule: Q04DX003 (ip), vehicle: Klucel (hydroxypropylcellulose) (HPC)
[13] = dose: 400.0 mg/kg/injection, schedule: Q04DX003 (ip), vehicle: Klucel (hydroxypropylcellulose) (HPC)
[14] = dose: 100.0 mg/kg/injection, schedule: Q04DX003 (ip), vehicle: saline with Tween-80
[15] = dose: 200.0 mg/kg/injection, schedule: Q04DX003 (ip), vehicle: saline with Tween-80
[16] = dose: 400.0 mg/kg/injection, schedule: Q04DX003 (ip), vehicle: saline with Tween-80

Measured: T/C

O=C(O)CCNCc1ccccc1
inactive: dose: 50.0 mg/kg/injection, schedule: Q01DX009 (ip), vehicle: saline 100 % of control | [1] 108 % of control | [2] 111 % of control | [3] 100 % of control | [4] 97 % of control | [5] 97 % of control

NCC1OC(n2cnc3c(=O)[nH]c(N)nc32)C(O)C1O (configuration not stated)
inactive: dose: 100.0 mg/kg/injection, schedule: Q01DX001 (ip), vehicle: saline 101 % of control | dose: 200.0 mg/kg/injection, schedule: Q01DX001 (ip), vehicle: saline 95 % of control | dose: 400.0 mg/kg/injection, schedule: Q01DX001 (ip), vehicle: saline 91 % of control

COc1ccc(C=Nc2cc([N+](=O)[O-])ccc2O)cc1
inactive: dose: 100.0 mg/kg/injection, schedule: Q01DX001 (ip), vehicle: carboxymethylcellulose (CMC) 98 % of control | dose: 200.0 mg/kg/injection, schedule: Q01DX001 (ip), vehicle: carboxymethylcellulose (CMC) 98 % of control | dose: 400.0 mg/kg/injection, schedule: Q01DX001 (ip), vehicle: carboxymethylcellulose (CMC) 94 % of control

C1=CC2(CCC13CS3)CS2 (configuration not stated)
inactive: dose: 100.0 mg/kg/injection, schedule: Q04DX002 (ip), vehicle: saline with Tween-80 91 % of control | dose: 200.0 mg/kg/injection, schedule: Q04DX002 (ip), vehicle: saline with Tween-80 88 % of control | dose: 400.0 mg/kg/injection, schedule: Q04DX002 (ip), vehicle: saline with Tween-80 91 % of control

COc1cc([N+](=O)[O-])ccc1NC(=O)Oc1ccc2ccccc2c1
inactive: [6] 98 % of control | [7] 96 % of control | [8] 100 % of control

O=C(N/N=C\c1ccc(N(CCCl)CCCl)cc1)c1cccnc1
inactive: dose: 12.5 mg/kg/injection, schedule: Q01DX Z (ip), vehicle: carboxymethylcellulose (CMC) 96 % of control | dose: 25.0 mg/kg/injection, schedule: Q01DX Z (ip), vehicle: carboxymethylcellulose (CMC) 93 % of control and 94 % of control | dose: 50.0 mg/kg/injection, schedule: Q01DX Z (ip), vehicle: carboxymethylcellulose (CMC) 94 % of control and 100 % of control | dose: 100.0 mg/kg/injection, schedule: Q01DX Z (ip), vehicle: carboxymethylcellulose (CMC) 97 % of control and 104 % of control | dose: 200.0 mg/kg/injection, schedule: Q01DX Z (ip), vehicle: carboxymethylcellulose (CMC) 107 % of control and 111 % of control

CSc1ccc(SCCOC(=O)Nc2ccc(Cl)cc2Cl)cc1
inactive: dose: 50.0 mg/kg/injection, schedule: Q01DX009 (ip), vehicle: saline with Tween-80 91 % of control | [9] 93 % of control | [10] 98 % of control

CN1CCCC1CCCl (configuration not stated)
inactive: dose: 12.5 mg/kg/injection, schedule: Q01DX001 (ip), vehicle: saline 97 % of control | dose: 12.5 mg/kg/injection, schedule: Q04DX003 (ip), vehicle: saline 88 % of control | dose: 25.0 mg/kg/injection, schedule: Q01DX001 (ip), vehicle: saline 100 % of control | dose: 25.0 mg/kg/injection, schedule: Q04DX003 (ip), vehicle: saline 95 % of control | dose: 50.0 mg/kg/injection, schedule: Q01DX001 (ip), vehicle: saline 100 % of control | dose: 50.0 mg/kg/injection, schedule: Q04DX003 (ip), vehicle: saline 95 % of control | dose: 75.0 mg/kg/injection, schedule: Q04DX003 (ip), vehicle: saline 100 % of control

CC(C)Cn1cnc2c(SCc3ccc(Cl)cc3Cl)nc(N)nc21
inactive: [1] 100 % of control | dose: 100.0 mg/kg/injection, schedule: Q04DX003 (ip), vehicle: acetone 92 % of control | [3] 102 % of control | dose: 200.0 mg/kg/injection, schedule: Q04DX003 (ip), vehicle: acetone 91 % of control | dose: 400.0 mg/kg/injection, schedule: Q01DX009 (ip), vehicle: saline 97 % of control | dose: 400.0 mg/kg/injection, schedule: Q04DX003 (ip), vehicle: acetone 89 % of control

OCc1ccc(OCc2ccccc2)c(OCc2ccccc2)c1
inactive: dose: 100.0 mg/kg/injection, schedule: Q01DX009 (ip), vehicle: other 87 % of control | dose: 100.0 mg/kg/injection, schedule: Q04DX003 (ip), vehicle: other 94 % of control | dose: 200.0 mg/kg/injection, schedule: Q04DX003 (ip), vehicle: other 98 % of control | dose: 400.0 mg/kg/injection, schedule: Q04DX003 (ip), vehicle: other 90 % of control

COc1ccc(NC(=O)Oc2cc(C)cc(C)c2)cc1
inactive: [6] 106 % of control | [11] 100 % of control | [7] 101 % of control | [12] 97 % of control | [8] 100 % of control | [13] 92 % of control

O=S(=O)(O)c1ccc2c(ccc3ccccc32)c1
inactive: dose: 75.0 mg/kg/injection, schedule: Q01DX001 (ip), vehicle: saline 96 % of control

O=C1CNC(=O)N1c1cccc(Cl)c1
inactive: [14] 100 % of control | [15] 100 % of control | [16] 102 % of control

C/C(=C\Cl)CN(C)S(=O)(=O)c1ccc(Br)cc1
inactive: dose: 100.0 mg/kg/injection, schedule: Q01DX001 (ip), vehicle: saline with Tween-80 100 % of control and 98 % of control | [6] 94 % of control | dose: 200.0 mg/kg/injection, schedule: Q01DX001 (ip), vehicle: saline with Tween-80 94 % of control and 95 % of control | [7] 89 % of control | dose: 400.0 mg/kg/injection, schedule: Q01DX001 (ip), vehicle: saline with Tween-80 96 % of control and 98 % of control

COc1cc(C(=O)N2CC2)cc(OC)c1OC
inactive: dose: 25.0 mg/kg/injection, schedule: Q01DX009 (ip), vehicle: water 96 % of control | dose: 50.0 mg/kg/injection, schedule: Q01DX009 (ip), vehicle: water 96 % of control

Cn1nc(NC(=O)C(F)(F)F)c2ncc(-c3ccccc3)nc21
inactive: [9] 96 % of control | [10] 96 % of control

CON(C)S(=O)(=O)c1ccc(Cl)cc1
inactive: [11] 100 % of control | [12] 103 % of control | [13] 105 % of control

COc1ccc(COC2C(O)C(CO)OC2n2ccc(N)nc2=O)cc1 (configuration not stated)
inactive: dose: 12.5 mg/kg/injection, schedule: Q01DX005 (ip), vehicle: saline 103 % of control | dose: 25.0 mg/kg/injection, schedule: Q01DX005 (ip), vehicle: saline 100 % of control | dose: 50.0 mg/kg/injection, schedule: Q01DX005 (ip), vehicle: saline 94 % of control | dose: 100.0 mg/kg/injection, schedule: Q01DX005 (ip), vehicle: saline 107 % of control

CC1CCNCC1
inactive: [2] 105 % of control | [4] 102 % of control | [5] 94 % of control

Nc1ccc(SCc2nc3cccc4c3n2CCC4)cc1
inactive: [9] 88 % of control | [14] 96 % of control | [10] 96 % of control | [15] 94 % of control | dose: 400.0 mg/kg/injection, schedule: Q01DX009 (ip), vehicle: saline with Tween-80 105 % of control | [16] 92 % of control

CC(=Nc1ccccc1)NO
inactive: dose: 50.0 mg/kg/injection, schedule: Q01DX009 (ip), vehicle: acetone 94 % of control | dose: 100.0 mg/kg/injection, schedule: Q01DX009 (ip), vehicle: acetone 97 % of control | dose: 100.0 mg/kg/injection, schedule: Q04DX003 (ip), vehicle: saline 96 % of control | dose: 200.0 mg/kg/injection, schedule: Q01DX009 (ip), vehicle: acetone 100 % of control | dose: 200.0 mg/kg/injection, schedule: Q04DX003 (ip), vehicle: saline 108 % of control | dose: 400.0 mg/kg/injection, schedule: Q04DX003 (ip), vehicle: saline 96 % of control

COC(=O)C12CCc3cc(OC)ccc3C1=CC(=O)C2 (configuration not stated)
inactive: dose: 100.0 mg/kg/injection, schedule: Q04DX003 (ip), vehicle: saline sonified 101 % of control | dose: 200.0 mg/kg/injection, schedule: Q04DX003 (ip), vehicle: saline sonified 95 % of control | dose: 400.0 mg/kg/injection, schedule: Q04DX003 (ip), vehicle: saline sonified 94 % of control
